PubChem BioAssay (NCI)
Several values for one entry are separate records, joined by “and”; a condition that tells them apart may be missing. Identical values can stand only once.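 Cultured in 96-well plates, cells were exposed to test compound for 48 hours across five concentrations. GI50 is the concentration that inhibits growth by half. TGI: total growth inhibition.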

Experiments:
Experiment in all cases: inhibition of tumour cell growth, NCI panel, 48 h
DU-145 prostate = tested on: DU-145 prostate
HS 578T breast = tested on: HS 578T breast
KM12 colon = tested on: KM12 colon
MALME-3M melanoma = tested on: MALME-3M melanoma
MDA-MB-435 = tested on: MDA-MB-435
PC-3 prostate = tested on: PC-3 prostate
SK-MEL-28 melanoma = tested on: SK-MEL-28 melanoma
T-47D breast = tested on: T-47D breast
UACC-62 melanoma = tested on: UACC-62 melanoma
UO-31 renal = tested on: UO-31 renal

| Structure (SMILES) | TGI (DU-145 prostate) | TGI (HS 578T breast) | TGI (KM12 colon) [µM] | TGI (MALME-3M melanoma) [µM] | TGI (MDA-MB-435) [µM] | TGI (PC-3 prostate) | TGI (SK-MEL-28 melanoma) [µM] | TGI (T-47D breast) | TGI (UACC-62 melanoma) [µM] | TGI (UO-31 renal) | GI50 (DU-145 prostate) | GI50 (HS 578T breast) | GI50 (KM12 colon) [µM] | GI50 (MDA-MB-435) [µM] | GI50 (PC-3 prostate) | GI50 (SK-MEL-28 melanoma) [µM] | GI50 (T-47D breast) | GI50 (UACC-62 melanoma) [µM] | GI50 (UO-31 renal) | GI50 (MALME-3M melanoma) [µM] |
| --- | --- | --- | --- | --- | --- | --- | --- | --- | --- | --- | --- | --- | --- | --- | --- | --- | --- | --- | --- | --- |
| OCCN(CO)CO | > 100 µM | > 100 µM | > 100 | > 100 | > 100 | > 100 µM | > 100 | > 100 µM | > 100 | > 100 µM |  |  |  |  |  |  |  |  |  |  |
| COc1ccc(/C=C/C(=O)c2cc3c(N)c(C(=O)Nc4ccc(OC)cc4)sc3nc2C)cc1 | 7.78 µM | > 11.8 µM | 20.5 |  | 0.0777 | > 50 µM | > 50 | > 50 µM | > 50 | > 50 µM | 0.184 µM | 0.211 µM | 0.203 | 0.0189 | 0.434 µM | 0.4 | 0.403 µM | 0.161 | 0.988 µM |  |
| Nc1ncc2ncn(C3CCC(CO)O3)c2n1 (centres undefined) | > 100 µM | > 100 µM | > 100 |  | > 100 | > 100 µM | > 100 | > 100 µM | > 100 | > 100 µM |  |  |  |  |  |  |  |  |  |  |
| CSC1=Nc2c(c(C)c(-c3ccccc3)n2COC(CO)CO)C2=NC(=O)CC(C)N12 (centres undefined) | > 100 µM | > 100 µM | > 100 | > 100 | > 100 | > 100 µM | > 100 | > 100 µM | > 100 | > 100 µM | > 100 µM | > 100 µM | > 100 | > 100 | > 100 µM | > 100 | > 100 µM | > 100 | > 100 µM | > 100 |
| C[As](C)SC1OCC(O)C(O)C1O (centres undefined) | 0.824 µM | 0.718 µM | 3.83 | 0.366 | 1.32 | 5.73 µM | 3.33 | 4.74 µM | 0.556 | 0.53 µM | 0.122 µM | 0.276 µM | 0.387 | 0.13 | 0.506 µM | 0.387 | 0.158 µM | 0.195 | 0.109 µM | 0.069 |
| COc1cc2cc(Oc3cccc(NC(=O)Nc4cc(C(F)(F)F)cc(C(F)(F)F)c4)c3)c(C)nc2cc1OC | 9.36 µM | 6.94 µM | 2.46 | 3.46 | 4.28 | 2.48 µM | 3.09 | 5.67 µM | 2.09 | 1.65 µM | 2.38 µM | 2.65 µM | 0.918 | 1.8 | 0.423 µM | 1.19 | 1.48 µM | 0.561 | 0.266 µM | 1.1 |
| CCOC(=O)c1c(CN2CCN(C)CC2)nc2ccc(Cl)cc2c1-c1ccccc1 | 26.7 µM | 23.1 µM | 19.1 | 4.09 | 7.87 | 24.8 µM | 3.19 | 24.4 µM | 7.76 | 19.5 µM | 13.7 µM | 4.69 µM | 6.76 | 2.71 | 8.83 µM | 1.74 | 9.41 µM | 2.35 | 5.98 µM | 1.75 |
| C1=CC2CCC1CN2CCC1CNc2ccccc21 (centres undefined) |  |  | > 100 | > 100 |  |  | > 100 |  | > 100 | > 100 µM |  |  |  |  |  |  |  |  |  |  |
| O=CN1N=C(c2cccc(Nc3ccnc4cc(Cl)ccc34)c2)CC1c1ccc(Cl)cc1 (centres undefined) | > 100 µM | > 100 µM | > 100 | > 100 | 24.9 |  | > 100 | > 100 µM | > 100 | > 100 µM | 4.17 µM | 1.97 µM | 0.591 | 0.293 |  | 5.63 | 2.63 µM | 1.63 | 0.878 µM | 1.63 |
| CCCCC1(C(NC(=O)c2ccccc2Cl)c2ccncc2)C(=O)N(c2ccccc2)N(c2ccccc2)C1=O (centres undefined) |  |  | > 100 | > 100 |  |  | > 100 |  | > 100 | > 100 µM |  |  |  |  |  |  |  |  |  |  |
| COc1ccc(/C=N/NS(=O)(=O)c2ccccc2)cc1 |  |  | > 100 | > 100 |  |  | > 100 |  | > 100 | > 100 µM |  |  |  |  |  |  |  |  |  |  |
| COc1ccc(Br)c(C(=O)N2CCc3ccccc32)c1N |  |  | > 100 | > 100 |  |  | > 100 |  | > 100 | > 100 µM |  |  |  |  |  |  |  |  |  |  |
| CC1(C)OC(=O)C(=C2CCC(C(=O)Nc3cccc(C(F)(F)F)c3)N2)C(=O)O1 (centres undefined) |  |  | > 100 | > 100 |  |  | > 100 |  | > 100 | > 100 µM |  |  |  |  |  |  |  |  |  |  |
| COc1ccc(-c2csc(Nc3cccc(-c4csc(C)n4)c3)n2)cc1 | > 50 µM | > 37.9 µM | > 16.7 |  | 1.02 | > 50 µM | > 12.1 | > 50 µM | 7.61 | > 50 µM | 2.14 µM | 4.68 µM | 1.17 | 0.366 | 1.97 µM | 1.98 | 11.5 µM | 0.249 | 2.54 µM |  |
| O=C(/C=C/c1ccccc1O)c1ccccc1Cl |  |  | > 100 | > 100 |  |  | > 100 |  | > 100 | > 100 µM |  |  |  |  |  |  |  |  |  |  |
| CCCCCCCCCCCCCCCC[n+]1ccccc1 | 1.99 µM and 2.31 µM | 4.64 µM and 4.84 µM |  |  |  | 0.846 µM and 0.692 µM | 2.56 | 3.42 µM and 3.91 µM | 2.15 | 2.33 µM and 2.85 µM | 0.717 µM and 0.938 µM | 1.46 µM and 1.67 µM |  |  | 0.243 µM and 0.244 µM | 1.25 | 0.5 µM and 0.445 µM | 0.565 | 0.795 µM and 1.16 µM |  |
| Cc1cc(NN=C(c2ccc(O)cc2)c2ccc(O)cc2)c([N+](=O)[O-])cc1[N+](=O)[O-] | 29.5 µM | 39.8 µM | 24 | 23.2 | 14.4 |  | 21.2 |  | 19.3 | 23.7 µM | 9.83 µM | 5.04 µM | 4.6 | 3.46 | 3.23 µM | 5.59 |  | 4.77 | 4.02 µM | 9.31 |
